Test results from patent publication EP2396329B1, “COMPOUNDS FOR THE TREATMENT OF HEPATITIS C” (priority 2009, dated 2010).

Each molecule was assayed against T1, HCV NS5B (Hepatitis C virus genotype 1b, UniProt Q9WMX2) (assay: HCV NS5B RdRp enzyme assay (standard or modified)). Conditions: HCV NS5B RdRp enzyme, genotype 1b; read-out: IC50.
T1 construct: The protein was expressed with an 18 amino acid C-terminal truncation to enhance the solubility; made in house; host or cells: E. coli BL21(DE3)
T1 sequence (Q9WMX2 2420-2992): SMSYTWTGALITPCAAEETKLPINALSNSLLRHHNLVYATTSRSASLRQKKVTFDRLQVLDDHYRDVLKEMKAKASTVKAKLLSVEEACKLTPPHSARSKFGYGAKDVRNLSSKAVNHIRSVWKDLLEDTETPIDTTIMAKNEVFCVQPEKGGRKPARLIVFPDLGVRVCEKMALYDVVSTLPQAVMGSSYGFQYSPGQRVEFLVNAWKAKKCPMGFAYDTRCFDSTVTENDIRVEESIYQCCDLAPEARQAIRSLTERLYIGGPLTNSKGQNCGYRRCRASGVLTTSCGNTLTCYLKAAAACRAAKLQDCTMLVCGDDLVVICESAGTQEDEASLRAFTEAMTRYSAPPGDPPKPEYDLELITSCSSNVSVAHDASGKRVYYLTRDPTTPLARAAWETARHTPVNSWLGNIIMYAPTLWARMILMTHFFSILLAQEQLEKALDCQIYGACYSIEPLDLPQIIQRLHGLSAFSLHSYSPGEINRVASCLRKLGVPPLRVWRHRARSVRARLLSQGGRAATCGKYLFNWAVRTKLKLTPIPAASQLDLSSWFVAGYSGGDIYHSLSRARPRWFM
Type: biochemical
Description: HCV NS5B RdRp cloning, expression, and purification. The cDNA encoding the NS5B protein of HCV, genotype 1b, was cloned into the pET21a expression vector. The protein was expressed with an 18 amino acid C-terminal truncation to enhance the solubility. The E. coli competent cell line BL21(DE3) was used for expression of the protein. Cultures were grown at 37 °C for ~ 4 hours until the cultures reached an optical density of 2.0 at 600 nm. The cultures were cooled to 20 °C and induced with I mM IPTG. Fresh ampicillin was added to a final concentration of 50 µg/ml and the cells were grown overnight at 20 °C.
Cell pellets (3L) were lysed for purification to yield 15-24 mgs of purified NS5B. The lysis buffer consisted of 20 mM Tris-HCl, pH 7.4, 500 mM NaCl, 0.5% triton X-100, 1 mM DTT, 1mM EDTA, 20% glycerol, 0.5 mg/ml lysozyme, 10 mM MgCl2, 15 ug/ml deoxyribonuclease I, and Complete TM protease inhibitor tablets (Roche). After addition of the lysis buffer, frozen cell pellets were resuspended using a tissue homogenizer. To reduce the viscosity of the sample, aliquots of the lysate were sonicated on ice using a microtip attached to a Branson sonicator. The sonicated lysate was centrifuged at 100,000 x g for 1hr at 4 °C and filtered through a 0.2 µm filter unit (Corning).
The protein was purified using three sequential chromatography steps: Heparin sepharose CL-6B, polyU sepharose 4B, and Hitrap SP sepharose (Pharmacia). The chromatography buffers were identical to the lysis buffer but contained no lysozyme, deoxyribonuclease I, MgCl2 or protease inhibitor and the NaCl concentration of the buffer was adjusted according to the requirements for charging the protein onto the column. Each column was eluted with a NaCl gradient which varied in length from 5-50 column volumes depending on the column type. After the final chromatography step, the resulting purity of the enzyme is >90% based on SDS-PAGE analysis. The enzyme was aliquoted and stored at -80 °C.
Standard HCV NS5B RdRp enzyme assay. HCV RdRp genotype 1b assays were run in a final volume of 60 µl in 96 well plates (Costar 3912). The assay buffer is composed of 20 mM Hepes, pH 7.5, 2.5 mM KCI, 2.5 mM MgCl2, 1 mM DTT, 1.6 U RNAse inhibitor (Promega N2515), 0.1 mg/ml BSA (Promega R3961), and 2 % glycerol. All compounds were serially diluted (3-fold) in DMSO and diluted further in water such that the final concentration of DMSO in the assay was 2%. HCV RdRp genotype Ib enzyme was used at a final concentration of 28 nM. A polyA template was used at.6 nM, and a biotinylated oligo-dT12 primer was used at 180 nM final concentration. Template was obtained commercially (Amersham 27-4110). Biotinylated primer was prepared by Sigma Genosys. 3H-UTP was used at 0.6 µCi (0.29 µM total UTP). Reactions were initiated by the addition of enzyme, incubated at 30 °C for 60 min, and stopped by adding 25 µl of 50 mM EDTA containing SPA beads (4 µg/µl, Amersham RPNQ 0007). Plates were read on a Packard Top Count NXT after > 1hr incubation at room temperature.
Modified HCV NS5B RdRp enzyme assay. A modified enzyme assay was performed essentially as described for the standard enzyme assay except for the following: The biotinylated oligo dT12 primer was precaptured on streptavidin-coated SPA beads by mixing primer and beads in assay buffer and incubating at room temperature for one hour. Unbound primer was removed after centrifugation. The primer-bound beads were resuspended in 20 mM Hepes buffer, pH 7.5 and used in the assay at final concentrations of 20 nM primer and 0.67 µg/µl beads. Order of addition in the assay: enzyme (14 nM) was added to diluted compound followed by the addition of a mixture of template (0.2 nM), 3H-UTP (0.6 µCi, 0.29 µM), and primer-bound beads, to initiate the reaction; concentrations given are final. Reactions were allowed to proceed for 4 hours at 30° C.
IC50 values for compounds were determined using seven different [I]. […]
Work on COc1ccc2c(c1)C=C(c1c(C(=O)N3CCN(C)CC3)c(C(C)C)nn1C)Cn1c-2c(C2CCCCC2)c2ccc(C(=O)NS(=O)(=O)C(C)C)cc21 yielded an IC50 of 0.001 to 0.5 µM.
Molecule COc1ccc2c(c1)C=C(c1c(C(=O)N3C[C@@H](C)N(C)[C@@H](C)C3)c(C(C)C)nn1C)Cn1c-2c(C2CCCCC2)c2ccc(C(=O)NS(=O)(=O)C(C)C)cc21 has an IC50 of 0.001 to 0.5 µM.
Molecule CCn1nc(C)c(C2=Cc3cc(OC)ccc3-c3c(C4CCCCC4)c4ccc(C(=O)NS(=O)(=O)C(C)C)cc4n3C2)c1C(=O)N1CCOCC1 has an IC50 of 0.001 to 0.5 µM.
COc1ccc2c(c1)C=C(c1c(C(=O)N3CCN(C)CC(F)(F)C3)nnn1C(C)C)Cn1c-2c(C2CCCCC2)c2ccc(C(=O)NS(=O)(=O)N(C)C)cc21 showed an IC50 of 0.001 to 0.5 µM.

These molecules were tested on HCV replicon (assay: HCV replicon assay (FRET or luciferase readout)). Conditions: Hepatitis C virus; HCV replicon cells; FRET or luciferase activity; read-out: EC50.
Type: cell-based
Excerpt: FRET Assay Preparation. To perform the HCV FRET screening assay, 96-well cell culture plates were used. The FRET peptide (Anaspec, Inc.) (Taliani et al., Anal. Biochem. 1996, 240, 60-67) contains a fluorescence donor, EDANS, near one end of the peptide and an acceptor, DABCYL, near the other end. The fluorescence of the peptide is quenched by […] resonance energy transfer (RET) between the donor and the acceptor, but as the NS3 protease cleaves the peptide the products are released from RET quenching and the fluorescence of the donor becomes apparent. The assay reagent was made as follows: 5X cell Luciferase cell culture lysis reagent from Promega (#E153A) diluted to 1X with dH2O, NaCl added to 150 mM final, the FRET peptide diluted to 20 µM final from a 2 mM stock.
To prepare plates, HCV replicon cells, with or without a Renilla luciferase reporter gene, were trypsinized and placed into each well of a 96-well plate with titrated test compounds added in columns 3 through 12; columns 1 and 2 contained a control compound (HCV protease inhibitor), and the bottom row contained cells without compound. The plates were then placed in a CO2 incubator at 37 °C.
Assays. Subsequent to addition of the test compounds described above (FRET Assay Preparation), at various times the plate was removed and Alamar blue solution (Trek Diagnostics, #00-100) was added per well as a measure of cellular toxicity. After reading in a Cytoflour 4000 instrument (PE Biosystems), plates were rinsed with PBS and then used for FRET assay by the addition of 30 ul of the FRET peptide assay reagent described above (FRET Assay Preparation) per well. The plate was then placed into the Cytoflour 4000 instrument which had been set to 340 excite/490 emission, automatic mode for 20 cycles and the plate read in a kinetic mode. Typically, the signal to noise using an endpoint analysis after the reads was at least three-fold. Alternatively, after Alamar blue reading, plates were rinsed with PBS, 50 ul of DMEM (high glucose) without phenol red was added and plates were then used for luciferase assay using the Promega Dual-Glo Luciferase Assay System.
Compound analysis was determined by quantification of the relative HCV replicon inhibition and the relative cytotoxicity values. To calculate cytoxicity values, the average Alamar Blue fluorescence signals from the control wells were set as 100% non-toxic. The individual signals in each of the compound test wells were then divided by the average control signal and multiplied by 100% to determine […]. To calculate the HCV replicon inhibition values, an average background value was obtained from the two wells containing the highest amount of HCV protease inhibitor at the end of the assay period. These numbers were similar to those obtained from naïve Huh-7 cells.
The background numbers were then subtracted from the average signal obtained from the control wells and this number was used as 100% activity. The individual signals in each of the compound test wells were then divided by the averaged control values after background subtraction and multiplied by 100% to determine percent activity. EC50 values for a protease inhibitor titration were calculated as the concentration which caused a 50% reduction in FRET or luciferase activity. The two numbers generated for the compound plate, percent cytoxicity and percent activity were used to determine compounds of interest for further analysis.
COc1ccc2c(c1)C=C(c1c(C(=O)N3CCN(C)CC3)c(C(C)C)nn1C)Cn1c-2c(C2CCCCC2)c2ccc(C(=O)NS(=O)(=O)C(C)C)cc21 gave an EC50 of 0.001 to 0.5 µM.
Molecule COc1ccc2c(c1)C=C(c1c(C(=O)N3C[C@@H](C)N(C)[C@@H](C)C3)c(C(C)C)nn1C)Cn1c-2c(C2CCCCC2)c2ccc(C(=O)NS(=O)(=O)C(C)C)cc21 has an EC50 of 0.001 to 0.5 µM.
Molecule CCn1nc(C)c(C2=Cc3cc(OC)ccc3-c3c(C4CCCCC4)c4ccc(C(=O)NS(=O)(=O)C(C)C)cc4n3C2)c1C(=O)N1CCOCC1 has an EC50 of 0.001 to 0.5 µM.
With COc1ccc2c(c1)C=C(c1c(C(=O)N3CCN(C)CC(F)(F)C3)nnn1C(C)C)Cn1c-2c(C2CCCCC2)c2ccc(C(=O)NS(=O)(=O)N(C)C)cc21 the EC50 was 0.001 to 0.5 µM.
